Assay results as given in US20140213513A1 (Sanofi, priority 2012, published 2014).
pEC50: −log10 of the molar value. *1 amine or outer side, *2 acyl side, *3 side chain or, on linkers, in order; H or OH if unused. Where a SMILES comes first, the peptide text is derived from it. Side-chain parts run from the residue outwards. [ ]: non-standard residue; d: D form. The star is where a group is joined. γGlu = O=C(O)[C@H](CCC(=O)[*:2])N[*:1]; Palmitoyl = CCCCCCCCCCCCCCCC(=O)*; Aib = CC(C)(N)C(=O)O

Assays:
Type in all cases: cell-based
Conditions in all cases: Table 7; cAMP formation
[1] = molecular target: T1, human glucagon receptor (hGLUC R) (Homo sapiens, UniProt P47871); test: cAMP response of HEK-293 cells stably expressing human glucagon receptor (HTRF)
T1 construct: expressed in transfected cells
Procedure, shortened: (§1)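 cAMP accumulation was read by homogeneous time-resolved fluorescence after 30 min compound exposure at room temperature. Stable receptor-expressing HEK-293 cells, 400000 cells/ml, were used in HEPES-buffered HBSS containing 0.1% BSA and the phosphodiesterase inhibitor IBMX (2 mM).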

[2] = molecular target: T2, human GIP receptor (hGIP R) (Homo sapiens, UniProt P48546); test: cAMP response of HEK-293 cells stably expressing human GIP receptor (HTRF)
T2 construct: expressed in transfected cells
T2 sequence (P48546 22-466): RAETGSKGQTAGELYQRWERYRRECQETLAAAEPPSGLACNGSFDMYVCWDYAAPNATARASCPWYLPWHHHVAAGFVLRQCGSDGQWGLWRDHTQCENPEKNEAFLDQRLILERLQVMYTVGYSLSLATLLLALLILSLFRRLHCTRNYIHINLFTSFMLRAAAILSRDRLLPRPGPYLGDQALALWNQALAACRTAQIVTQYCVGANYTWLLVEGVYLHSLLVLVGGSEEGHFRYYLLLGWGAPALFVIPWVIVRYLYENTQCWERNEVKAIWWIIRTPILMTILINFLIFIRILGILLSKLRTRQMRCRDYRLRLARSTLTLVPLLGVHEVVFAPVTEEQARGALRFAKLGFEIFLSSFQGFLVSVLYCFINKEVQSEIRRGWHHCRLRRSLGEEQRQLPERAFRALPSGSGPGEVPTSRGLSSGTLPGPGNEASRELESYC
Procedure, shortened: as §1

[3] = molecular target: T3, human GLP-1 receptor (hGLP-1 R) (Homo sapiens, UniProt P43220); test: cAMP response of HEK-293 cells stably expressing human GLP-1 receptor (HTRF)
T3 construct: expressed in transfected cells
Procedure, shortened: as §1

T3 sequence (P43220 24-463): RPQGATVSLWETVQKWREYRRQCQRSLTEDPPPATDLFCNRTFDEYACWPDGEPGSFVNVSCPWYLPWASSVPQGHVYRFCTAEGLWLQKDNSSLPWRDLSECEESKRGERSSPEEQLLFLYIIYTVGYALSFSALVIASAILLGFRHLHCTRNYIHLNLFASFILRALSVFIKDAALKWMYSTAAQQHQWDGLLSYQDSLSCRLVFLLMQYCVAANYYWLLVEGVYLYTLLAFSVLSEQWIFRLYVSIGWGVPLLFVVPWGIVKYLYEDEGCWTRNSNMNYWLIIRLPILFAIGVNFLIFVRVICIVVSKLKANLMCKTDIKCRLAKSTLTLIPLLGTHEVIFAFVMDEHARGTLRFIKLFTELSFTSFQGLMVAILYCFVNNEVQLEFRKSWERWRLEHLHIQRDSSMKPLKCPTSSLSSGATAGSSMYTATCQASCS
T1 sequence (P47871 26-477): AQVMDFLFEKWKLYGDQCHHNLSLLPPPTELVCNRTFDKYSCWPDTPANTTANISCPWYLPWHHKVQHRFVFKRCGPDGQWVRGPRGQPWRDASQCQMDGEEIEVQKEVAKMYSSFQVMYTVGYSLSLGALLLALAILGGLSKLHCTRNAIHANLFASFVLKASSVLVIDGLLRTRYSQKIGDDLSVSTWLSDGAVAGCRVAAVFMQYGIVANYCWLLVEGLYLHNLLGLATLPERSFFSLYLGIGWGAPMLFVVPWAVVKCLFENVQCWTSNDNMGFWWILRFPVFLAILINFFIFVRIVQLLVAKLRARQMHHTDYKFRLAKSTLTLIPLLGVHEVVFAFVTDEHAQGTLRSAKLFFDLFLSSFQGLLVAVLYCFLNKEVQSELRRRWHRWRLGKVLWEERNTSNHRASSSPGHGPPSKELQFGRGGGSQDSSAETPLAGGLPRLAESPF

| SMILES | pEC50 [1] | pEC50 [2] | pEC50 [3] |
| --- | --- | --- | --- |
| CCCCCCCCCCCCCCCC(=O)N[C@@H](CCC(=O)NCCCC[C@H](NC(=O)[C@H](CCC(N)=O)NC(=O)[C@@H](NC(=O)[C@H](CO)NC(=O)[C@H](CC(C)C)NC(=O)[C@H](CC(=O)O)NC(=O)[C@H](CO)NC(=O)[C@@H](NC(=O)[C@H](Cc1ccccc1)NC(=O)[C@@H](NC(=O)CNC(=O)[C@H](CCC(N)=O)NC(=O)C(C)(C)NC(=O)[C@@H](N)Cc1ccc(O)cc1)[C@@H](C)O)[C@@H](C)O)[C@@H](C)CC)C(=O)N[C@@H](CCC(=O)O)C(=O)N[C@@H](CCCCN)C(=O)N[C@@H](CCCNC(=N)N)C(=O)N[C@@H](C)C(=O)N[C@@H](C)C(=O)NC(C)(C)C(=O)N[C@@H](Cc1ccc(O)cc1)C(=O)N[C@@H](Cc1ccccc1)C(=O)N[C@H](C(=O)N[C@@H](CCC(=O)O)C(=O)N[C@@H](Cc1c[nH]c2ccccc12)C(=O)N[C@@H](CC(C)C)C(=O)N[C@@H](CCCCN)C(=O)N[C@@H](CC(N)=O)C(=O)N[C@H](C(=O)NCC(=O)N1CCC[C@H]1C(=O)N[C@@H](CO)C(=O)N[C@@H](CO)C(=O)NCC(=O)N[C@@H](C)C(=O)N1CCC[C@H]1C(=O)N1CCC[C@H]1C(=O)N1CCC[C@H]1C(=O)N[C@@H](CO)C(N)=O)[C@@H](C)O)[C@@H](C)CC)C(=O)O [SEQ ID NO: 23, Y-Aib-Q-G-T-F-T-S-D-L-S-I-Q-K(yE-x53)-E-K-R-A-A-Aib-Y-F-I-E-W-L-K-N-T-G-P-S-S-G-A-P-P-P-S-NH2] (H-Y[Aib]QGTFTSDLSIQK([γGlu-Palmitoyl])EKRAA[Aib]YFIEWLKNTGPSSGAPPPS-NH2) | 9.51 | 9.87 | 11.04 |
| CCCCCCCCCCCCCCCC(=O)N[C@@H](CCC(=O)NCCCC[C@H](NC(=O)[C@H](CCC(N)=O)NC(=O)[C@@H](NC(=O)[C@H](CO)NC(=O)[C@H](CC(C)C)NC(=O)[C@H](CC(=O)O)NC(=O)[C@H](CO)NC(=O)[C@@H](NC(=O)[C@H](Cc1ccccc1)NC(=O)[C@@H](NC(=O)CNC(=O)[C@H](CCC(N)=O)NC(=O)C(C)(C)NC(=O)[C@@H](N)Cc1ccc(O)cc1)[C@@H](C)O)[C@@H](C)O)[C@@H](C)CC)C(=O)N[C@@H](CCC(=O)O)C(=O)N[C@@H](CCCCN)C(=O)N[C@@H](CCCNC(=N)N)C(=O)N[C@@H](Cc1ccc(O)cc1)C(=O)N[C@@H](C)C(=O)NC(C)(C)C(=O)N[C@@H](CCC(=O)O)C(=O)N[C@@H](Cc1ccccc1)C(=O)N[C@H](C(=O)N[C@@H](CCC(=O)O)C(=O)N[C@@H](Cc1c[nH]c2ccccc12)C(=O)N[C@@H](CC(C)C)C(=O)N[C@@H](CCCCN)C(=O)N[C@@H](CC(N)=O)C(=O)N[C@H](C(=O)NCC(=O)N1CCC[C@H]1C(=O)N[C@@H](CO)C(=O)N[C@@H](CO)C(=O)NCC(=O)N[C@@H](C)C(=O)N1CCC[C@H]1C(=O)N1CCC[C@H]1C(=O)N1CCC[C@H]1C(=O)N[C@@H](CO)C(N)=O)[C@@H](C)O)[C@@H](C)CC)C(=O)O [SEQ ID NO: 13, Y-Aib-Q-G-T-F-T-S-D-L-S-I-Q-K(yE-x53)-E-K-R-Y-A-Aib-EFIEWLKNTGPSSGAPPPSN H2] (H-Y[Aib]QGTFTSDLSIQK([γGlu-Palmitoyl])EKRYA[Aib]EFIEWLKNTGPSSGAPPPS-NH2) | 10.69 | 10.58 | 10.85 |
| CCCCCCCCCCCCCCCC(=O)N[C@@H](CCC(=O)NCCCC[C@H](NC(=O)[C@H](CCC(N)=O)NC(=O)[C@H](CCCCN)NC(=O)[C@H](CO)NC(=O)[C@H](CC(C)C)NC(=O)[C@H](CC(=O)O)NC(=O)[C@H](CO)NC(=O)[C@@H](NC(=O)[C@H](Cc1ccccc1)NC(=O)[C@@H](NC(=O)CNC(=O)[C@H](CCC(N)=O)NC(=O)C(C)(C)NC(=O)[C@@H](N)Cc1ccc(O)cc1)[C@@H](C)O)[C@@H](C)O)C(=O)N[C@@H](CC(=O)O)C(=O)N[C@@H](CO)C(=O)N[C@@H](CCCCN)C(=O)N[C@@H](C)C(=O)N[C@@H](C)C(=O)N[C@@H](CCC(N)=O)C(=O)N[C@@H](CC(=O)O)C(=O)N[C@@H](Cc1ccccc1)C(=O)N[C@H](C(=O)N[C@@H](CCC(=O)O)C(=O)N[C@@H](Cc1c[nH]c2ccccc12)C(=O)N[C@@H](CC(C)C)C(=O)N[C@@H](CCCCN)C(=O)N[C@@H](C)C(=O)NCC(=O)NCC(=O)N1CCC[C@H]1C(=O)N[C@@H](CO)C(=O)N[C@@H](CO)C(=O)NCC(=O)N[C@@H](C)C(=O)N1CCC[C@H]1C(=O)N1CCC[C@H]1C(=O)N1CCC[C@H]1C(=O)N[C@@H](CO)C(N)=O)[C@@H](C)CC)C(=O)O [SEQ ID NO: 61, Y-Aib-Q-G-T-F-T-S-D-L-S-K-Q-K(yE-x53)-DSKAAQDFIEWLKAGGPSSGAPPPS-NH2] (H-Y[Aib]QGTFTSDLSKQK([γGlu-Palmitoyl])DSKAAQDFIEWLKAGGPSSGAPPPS-NH2) | 11.21 | 10.67 | 11.62 |
| CCCCCCCCCCCCCCCC(=O)N[C@@H](CCC(=O)NCCCC[C@H](NC(=O)[C@H](CCC(N)=O)NC(=O)[C@@H](NC(=O)[C@H](CO)NC(=O)[C@H](CC(C)C)NC(=O)[C@H](CC(=O)O)NC(=O)[C@H](CO)NC(=O)[C@@H](NC(=O)[C@H](Cc1ccccc1)NC(=O)[C@@H](NC(=O)CNC(=O)[C@H](CCC(N)=O)NC(=O)C(C)(C)NC(=O)[C@@H](N)Cc1ccc(O)cc1)[C@@H](C)O)[C@@H](C)O)[C@@H](C)CC)C(=O)N[C@@H](CC(=O)O)C(=O)N[C@@H](CO)C(=O)N[C@@H](CCCNC(=N)N)C(=O)N[C@@H](C)C(=O)N[C@@H](CCC(N)=O)C(=O)N[C@@H](CCC(N)=O)C(=O)N[C@@H](CC(=O)O)C(=O)N[C@@H](Cc1ccccc1)C(=O)N[C@H](C(=O)N[C@@H](CCC(=O)O)C(=O)N[C@@H](Cc1c[nH]c2ccccc12)C(=O)N[C@@H](CC(C)C)C(=O)N[C@@H](CCCCN)C(=O)N[C@@H](C)C(=O)NCC(=O)NCC(=O)N1CCC[C@H]1C(=O)N[C@@H](CO)C(=O)N[C@@H](CO)C(=O)NCC(=O)N[C@@H](C)C(=O)N1CCC[C@H]1C(=O)N1CCC[C@H]1C(=O)N1CCC[C@H]1C(=O)N[C@@H](CO)C(N)=O)[C@@H](C)CC)C(=O)O [SEQ ID NO: 51, Y-Aib-Q-G-T-F-T-S-D-L-S-I-Q-K(yE-x53)-DSRAQQDFIEWLKAGGPSSGAPPPS-NH2] (H-Y[Aib]QGTFTSDLSIQK([γGlu-Palmitoyl])DSRAQQDFIEWLKAGGPSSGAPPPS-NH2) | 9.24 | 11.20 | 11.38 |
| CCCCCCCCCCCCCCCC(=O)N[C@@H](CCC(=O)NCCCC[C@H](NC(=O)[C@H](CCC(N)=O)NC(=O)[C@@H](NC(=O)[C@H](CO)NC(=O)[C@H](CC(C)C)NC(=O)[C@H](CC(=O)O)NC(=O)[C@H](CO)NC(=O)[C@@H](NC(=O)[C@H](Cc1ccccc1)NC(=O)[C@@H](NC(=O)CNC(=O)[C@H](CCC(N)=O)NC(=O)C(C)(C)NC(=O)[C@@H](N)Cc1ccc(O)cc1)[C@@H](C)O)[C@@H](C)O)[C@@H](C)CC)C(=O)N[C@@H](CC(=O)O)C(=O)N[C@@H](CO)C(=O)N[C@@H](CCCNC(=N)N)C(=O)N[C@@H](CCCNC(=N)N)C(=O)N[C@@H](C)C(=O)N[C@@H](CCC(N)=O)C(=O)N[C@@H](CC(=O)O)C(=O)N[C@@H](Cc1ccccc1)C(=O)N[C@H](C(=O)N[C@@H](CCC(=O)O)C(=O)N[C@@H](Cc1c[nH]c2ccccc12)C(=O)N[C@@H](CC(C)C)C(=O)N[C@@H](CCCCN)C(=O)N[C@@H](C)C(=O)NCC(=O)NCC(=O)N1CCC[C@H]1C(=O)N[C@@H](CO)C(=O)N[C@@H](CO)C(=O)NCC(=O)N[C@@H](C)C(=O)N1CCC[C@H]1C(=O)N1CCC[C@H]1C(=O)N1CCC[C@H]1C(=O)N[C@@H](CO)C(N)=O)[C@@H](C)CC)C(=O)O [SEQ ID NO: 52, Y-Aib-Q-G-T-F-T-S-D-L-S-I-Q-K(yE-x53)-DSRRAQDFIEWLKAGGPSSGAPPPS-NH2] (H-Y[Aib]QGTFTSDLSIQK([γGlu-Palmitoyl])DSRRAQDFIEWLKAGGPSSGAPPPS-NH2) | 10.88 | 9.74 | 10.59 |
| CCCCCCCCCCCCCCCC(=O)N[C@@H](CCC(=O)NCCCC[C@H](NC(=O)[C@H](CCC(N)=O)NC(=O)[C@@H](NC(=O)[C@H](CO)NC(=O)[C@H](CC(C)C)NC(=O)[C@H](CC(=O)O)NC(=O)[C@H](CO)NC(=O)[C@@H](NC(=O)[C@H](Cc1ccccc1)NC(=O)[C@@H](NC(=O)CNC(=O)[C@H](CCC(=O)O)NC(=O)C(C)(C)NC(=O)[C@@H](N)Cc1ccc(O)cc1)[C@@H](C)O)[C@@H](C)O)[C@@H](C)CC)C(=O)N[C@@H](CCC(=O)O)C(=O)N[C@@H](CCCCN)C(=O)N[C@@H](CCCNC(=N)N)C(=O)N[C@@H](C)C(=O)N[C@@H](C)C(=O)NC(C)(C)C(=O)N[C@@H](CCC(=O)O)C(=O)N[C@@H](Cc1ccccc1)C(=O)N[C@H](C(=O)N[C@@H](CCC(=O)O)C(=O)N[C@@H](Cc1c[nH]c2ccccc12)C(=O)N[C@@H](CC(C)C)C(=O)N[C@@H](CCCCN)C(=O)N[C@@H](CCCNC(=N)N)C(=O)N[C@@H](C)C(=O)NCC(=O)N1CCC[C@H]1C(=O)N[C@@H](CO)C(=O)N[C@@H](CO)C(=O)NCC(=O)N[C@@H](C)C(=O)N1CCC[C@H]1C(=O)N1CCC[C@H]1C(=O)N1CCC[C@H]1C(=O)N[C@@H](CO)C(N)=O)[C@@H](C)CC)C(=O)O [SEQ ID NO: 20, Y-Aib-E-G-T-F-T-S-D-L-S-I-Q-K(yE-x53)-E-K-R-A-A-Aib-E-F-I-E-W-L-K- R-A-G-P-S-S-G-A-P-P-P-S-NH2] (H-Y[Aib]EGTFTSDLSIQK([γGlu-Palmitoyl])EKRAA[Aib]EFIEWLKRAGPSSGAPPPS-NH2) | 7.74 | 10.79 | 11.09 |
